Data on five molecules can be found in EPA's ToxRefDB 2.

SMILES strings stand for the structures.

Series [1] deals with mouse. To be noted: Prenatal developmental toxicity study, cd1, Oral, Gavage/Intubation, dose end: 17 GD.
For series [2], the system named is rat. To be noted: Combined chronic toxicity/carcinogenicity, fischer, Oral, Feed, dose end: 2 year.
In series [3] the test system is rat. To be noted: Combined chronic toxicity/carcinogenicity, fischer, Oral, Feed, dose end: 24 month.
For series [4], the system named is mouse. The settings on record: Carcinogenicity, cd1, Oral, Feed, dose end: 90 week.
The subject of another series is dog. To be noted: Chronic toxicity, beagle, Oral, Feed, dose end: 52 week.
Series [5] concerns rat. The settings on record: Prenatal developmental toxicity study, sprague dawley, Inhalation, Whole-Body, dose end: 15 GD.
Series [6] deals with rabbit. The settings on record: Prenatal developmental toxicity study, new zealand white, Inhalation, Whole-Body, dose end: 18 GD.
Series [7] relates to rabbit. To be noted: Prenatal developmental toxicity study, dutch, Inhalation, Whole-Body, dose end: 18 GD.
Series [8] has as its system rat. To be noted: Prenatal developmental toxicity study, sprague dawley, Inhalation, Whole-Body, dose end: 15 GD. This is another data set of the same source.
Series [9] concerns rat. The settings on record: Prenatal developmental toxicity study, fischer, Inhalation, Whole-Body, dose end: 15 GD.
Series [10] deals with rabbit. To be noted: Prenatal developmental toxicity study, new zealand white, Oral, Gavage/Intubation, dose end: 18 GD.
Series [11] has as its system rat. The settings on record: Prenatal developmental toxicity study, sprague dawley, Oral, Gavage/Intubation, dose end: 15 GD.
Setting [12] is: group: developmental, systemic / in life observation / body weight / fetal weight.
Where [13] appears, read: group: maternal, reproductive / reproductive performance / postimplantation loss / postimplantation loss + systemic / in life observation / body weight / ….
[14] abbreviates: group: cholinesterase, cholinesterase / cholinesterase / cholinesterase / erythrocyte cholinesterase (che).
Where [15] appears, read: group: systemic, systemic / pathology microscopic / stomach / mineralization + systemic / in life observation / body weight / body weight + systemic / in ….
[16] abbreviates: group: cholinesterase, cholinesterase / cholinesterase / cholinesterase / plasma cholinesterase (che).
Setting [17] is: group: systemic, systemic / clinical chemistry / alanine aminotransferase (alt/sgpt) / alanine aminotransferase (alt/sgpt) + systemic / clinical chemistry / ….
The mark [18] stands for this setting: group: cholinesterase, cholinesterase / cholinesterase / cholinesterase / brain cholinesterase (che) + cholinesterase / cholinesterase / cholinesterase / ….
The mark [19] stands for this setting: group: systemic, systemic / hematology / mean corpuscular (cell) volume (mcv) / mean corpuscular (cell) volume (mcv) + systemic / hematology / mean ….
The mark [20] stands for this setting: group: cholinesterase, cholinesterase / cholinesterase / cholinesterase / plasma cholinesterase (che) + cholinesterase / cholinesterase / cholinesterase / ….
[21] abbreviates: group: systemic, systemic / hematology / erythrocyte (rbc) count differential / erythrocyte (rbc) + systemic / hematology / hematocrit (hct) / hematocrit (….
Where [22] appears, read: group: developmental, developmental / developmental malformation / bone / wavy + developmental / developmental malformation / general / [other] + developmental / ….
[23] abbreviates: group: developmental, developmental / developmental malformation / general / [other] + systemic / in life observation / body weight / fetal weight.
The mark [24] stands for this setting: group: maternal, reproductive / reproductive performance / resorptions / resorptions.
Setting [25] is: group: developmental, developmental / developmental malformation / bone / [other] + developmental / developmental malformation / bone / absent + developmental / ….
Setting [26] is: group: maternal, reproductive / reproductive performance / estrous cycle / corpora lutea + reproductive / reproductive performance / implantations / ….
Where [27] appears, read: group: developmental, developmental / developmental malformation / bone / delayed ossification + developmental / developmental malformation / bone / misaligned + ….
Where [28] appears, read: group: maternal, reproductive / reproductive performance / postimplantation loss / postimplantation loss + systemic / hematology / hemoglobin (hgb) / ….
Setting [29] is: group: developmental, developmental / developmental malformation / bone / [other] + developmental / developmental malformation / bone / fused + developmental / ….
[30] abbreviates: group: developmental, developmental / developmental malformation / bone / [other] + developmental / developmental malformation / heart / [other] + systemic / in ….
Where [31] appears, read: group: developmental, developmental / developmental malformation / bone / [other] + developmental / developmental malformation / bone / bipartite ossification + ….
The mark [32] stands for this setting: group: developmental, developmental / developmental malformation / bone / incomplete ossification + developmental / developmental malformation / bone / unossified.
Where [33] appears, read: group: maternal, reproductive / reproductive performance / implantations / implantations + systemic / hematology / erythrocyte (rbc) count differential / ….
Where [34] appears, read: group: maternal, systemic / organ weight / liver / absolute.
[35] abbreviates: group: developmental, developmental / developmental malformation / bone / full supernumerary.
Setting [36] is: group: maternal, systemic / in life observation / body weight / body weight gain + systemic / in life observation / food consumption / food consumption.
The mark [37] stands for this setting: group: maternal, systemic / in life observation / body weight / body weight gain + systemic / in life observation / food consumption / food consumption + ….
[38] abbreviates: group: developmental, developmental / developmental malformation / bone / bent + developmental / developmental malformation / bone / full supernumerary + ….
[39] abbreviates: group: maternal, systemic / in life observation / body weight / body weight gain.
The mark [40] stands for this setting: group: maternal, systemic / in life observation / body weight / body weight gain + systemic / in life observation / clinical signs / urine staining - ….

With `C=C(C)C(N)=O` [Methacrylamide], in the series on mouse [1] (setting [12]), the LEL came out at 120 mg/kg/day; the LOAEL (commonly the lowest dose or exposure tested at which an adverse effect was seen) was greater than 180 mg/kg/day; the NEL stood at 60 mg/kg/day; the NOAEL – broadly, the highest dose or exposure tested at which no adverse effect was seen – was no less than 180 mg/kg/day. Also, in the series with mouse [1] (setting [13]), the LOAEL is greater than 180 mg/kg/day, the NEL was determined as 60 mg/kg/day and the NOAEL was no less than 180 mg/kg/day. The same molecule gave an LEL with mouse [1] (group: maternal, systemic / organ weight / liver / relative to body weight) of 120 mg/kg/day.

`CCOC(=O)CC(SP(=O)(OC)OC)C(=O)OCC` (stereo unspecified) [Malaoxon]: in the series on rat [2] (setting [14]), the LEL turned out to be 1 mg/kg/day, the LOAEL amounted to 1 mg/kg/day, the NEL is less than 1 mg/kg/day and the no-observed-adverse-effect level (NOAEL) was less than 1 mg/kg/day. Further, the LOAEL in the series with rat [2] (group: systemic, systemic / pathology microscopic / stomach / mineralization) came to 57 mg/kg/day. In the series with rat [2] (setting [15]), the NEL amounted to 1 mg/kg/day and the NOAEL is 1 mg/kg/day. Besides, the LEL with rat [2] (group: systemic, systemic / pathology microscopic / stomach / mineralization + systemic / in life observation / food consumption / food consumption) stood at 57 mg/kg/day.

Consider `CCCCSP(=O)(SCCCC)SCCCC` [Tribufos], for which the LEL in the series with rat [3] (setting [16]) came out at 0.2 mg/kg/day; in the series on rat [3] (setting [17]), 1.8 mg/kg/day; in the series on mouse [4] (setting [18]), 1.64 mg/kg/day; in the series with mouse [4] (setting [19]), 1.64 mg/kg/day; in the series with dog (setting [16]), 0.4 mg/kg/day; with dog (setting [21]) it was 1.7 mg/kg/day. Besides, the LOAEL in the series on rat [3] (setting [16]) is 0.2 mg/kg/day; in the series with rat [3] (setting [17]), greater than 16.8 mg/kg/day; with mouse [4] (setting [18]), 1.64 mg/kg/day; in the series on mouse [4] (setting [19]), 1.64 mg/kg/day; in the series with dog (setting [16]), 0.4 mg/kg/day; in the series with dog (group: systemic, systemic / hematology / erythrocyte (rbc) count differential / erythrocyte (rbc)), 1.7 mg/kg/day. The NEL with rat [3] (setting [16]) was less than 0.2 mg/kg/day; in the series with rat [3] (setting [17]), 0.2 mg/kg/day; in the series with mouse [4] (setting [18]), less than 1.64 mg/kg/day; in the series with mouse [4] (setting [19]), less than 1.64 mg/kg/day; with dog (setting [20]), 0.1 mg/kg/day; in the series with dog (setting [21]), 0.4 mg/kg/day. The NOAEL with rat [3] (setting [16]) is less than 0.2 mg/kg/day; with rat [3] (setting [17]), no less than 16.8 mg/kg/day; in the series with mouse [4] (setting [18]), less than 1.64 mg/kg/day; in the series on mouse [4] (setting [19]), less than 1.64 mg/kg/day; in the series with dog (setting [20]), 0.1 mg/kg/day; with dog (setting [21]), 0.4 mg/kg/day.

In the case of `CCOCCOC(C)=O` [2-Ethoxyethyl acetate], the LOAEL is greater than 600 ppm with rat [5] (setting [22]); greater than 600 ppm in the series with rat [5] (setting [24]); greater than 300 ppm in the series with rabbit [6] (setting [25]); greater than 300 ppm in the series on rabbit [6] (setting [26]); greater than 400 ppm in the series on rabbit [7] (setting [27]); greater than 400 ppm in the series with rabbit [7] (setting [28]). Further, the LOAEL in the series with rat [8] (setting [29]) was greater than 600 mg/kg/day; in the series on rat [8] (setting [24]), greater than 600 mg/kg/day; in the series on rat [9] (setting [31]), greater than 300 ppm; in the series on rat [9] (setting [33]), greater than 300 ppm. The NOAEL in the series on rat [5] (setting [22]) is no less than 600 ppm; in the series on rat [5] (setting [24]) it was no less than 600 ppm; in the series with rabbit [6] (setting [25]), no less than 300 ppm; in the series on rabbit [6] (setting [26]), no less than 300 ppm; in the series on rabbit [7] (setting [27]), no less than 400 ppm; in the series with rabbit [7] (setting [28]), no less than 400 ppm. Further, the NOAEL in the series with rat [8] (setting [29]) was no less than 600 mg/kg/day; in the series with rat [8] (setting [24]) it was no less than 600 mg/kg/day; with rat [9] (setting [31]), no less than 300 ppm; with rat [9] (setting [33]), no less than 300 ppm. For the same molecule, the LEL turned out to be 130 ppm in the series with rat [5] (setting [23]); 390 ppm with rat [5] (setting [24]); 100 ppm in the series with rabbit [6] (group: developmental, developmental / developmental malformation / bone / incomplete ossification + developmental / developmental malformation / bone / misshapen…); 100 ppm in the series on rabbit [6] (group: maternal, systemic / hematology / platelet / platelet + systemic / in life observation / body weight / body weight gain + systemic / in life …); 100 ppm in the series with rabbit [7] (group: developmental, developmental / developmental malformation / bone / delayed ossification + developmental / developmental malformation / spleen / pale + …); 400 ppm in the series with rabbit [7] (setting [28]). Also, the LEL was found to be 130 mg/kg/day with rat [8] (setting [30]), 390 mg/kg/day in the series on rat [8] (setting [24]), 50 ppm in the series with rat [9] (setting [32]) and 50 ppm with rat [9] (setting [34]). Further, the NEL is less than 130 ppm in the series on rat [5] (setting [23]); 130 ppm in the series with rat [5] (setting [24]); 50 ppm with rabbit [6] (setting [25]); 50 ppm in the series on rabbit [6] (setting [26]); 25 ppm in the series with rabbit [7] (setting [27]); 100 ppm in the series on rabbit [7] (setting [28]). Also, the NEL with rat [8] (setting [30]) is less than 130 mg/kg/day; with rat [8] (setting [24]), 130 mg/kg/day; in the series with rat [9] (setting [32]) it was less than 50 ppm; with rat [9] (setting [34]) it was less than 50 ppm.

`O=C(O)COc1ccc(Cl)cc1Cl.OCCNCCO` [2,4-Dichlorophenoxyacetic acid diethanolamine]: the LEL with rabbit [10] (setting [35]) was 60 mg/kg/day; with rabbit [10] (setting [36]), 30 mg/kg/day; with rat [11] (setting [38]), 75 mg/kg/day; in the series on rat [11] (setting [39]) it was 75 mg/kg/day. The LOAEL with rabbit [10] (setting [35]) was greater than 60 mg/kg/day; with rabbit [10] (setting [36]) it was 30 mg/kg/day; with rat [11] (setting [38]), 75 mg/kg/day; with rat [11] (setting [39]), 75 mg/kg/day. Besides, the NEL in the series with rabbit [10] (setting [35]) was found to be 30 mg/kg/day; in the series with rabbit [10] (setting [37]), 15 mg/kg/day; in the series on rat [11] (setting [38]), 15 mg/kg/day; in the series with rat [11] (setting [40]), 15 mg/kg/day. In addition, the NOAEL with rabbit [10] (setting [35]) is no less than 60 mg/kg/day; in the series with rabbit [10] (setting [37]), 15 mg/kg/day; in the series on rat [11] (setting [38]), 15 mg/kg/day; in the series on rat [11] (setting [40]), 15 mg/kg/day.
